{
  "source": "patent US20080247957A1",
  "about": "“Advanced drug delivery strategy and platform for minimally-invasive treatment of liver cancer” (Drexel University, priority 2007, published 2008)",
  "origin": "cited, not measured here",
  "conditions": "in the body",
  "data": [
    {"smiles": "O=c1[nH]cc(F)c(=O)[nH]1", "note": "[5 fluorouracil]", "values": [
      {"measurement": "half life", "value": "less than 5 min"}
    ]}
  ]
}
